# Reference: PubChem BioAssay (NCI)
# Several values for one entry are separate records, joined by “and”; a condition that tells them apart may be missing. Equal values may be shown once.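 The compound was tested at five concentrations on cells cultured in 96-well plates, with a 48-hour exposure period. GI50: concentration for 50% inhibition of growth. TGI marks complete inhibition of growth.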 Where a SMILES comes first, the peptide text is derived from it. The star is where a group is joined. Boc = CC(C)(C)OC(=O)*
# What was measured:
# Experiment in all cases: inhibition of tumour cell growth, NCI panel, 48 h
# U251 CNS = system: U251 CNS
# UACC-62 melanoma = system: UACC-62 melanoma
# HCT-15 colon = system: HCT-15 colon
# OVCAR-4 ovarian = system: OVCAR-4 ovarian
# RXF 393 renal = system: RXF 393 renal
# EKVX NSCLC = system: EKVX NSCLC
# SN12C renal = system: SN12C renal
# T-47D breast = system: T-47D breast
# CAKI-1 renal = system: CAKI-1 renal
# HS 578T breast = system: HS 578T breast
smiles,measurement,setting,value
C[N+](C)(C)CC1CCC/C1=N\OC(=O)c1ccccc1 (stereo not drawn),TGI,U251 CNS,> 100 µM
same,TGI,UACC-62 melanoma,> 100 µM
same,TGI,HCT-15 colon,> 100 µM
same,TGI,OVCAR-4 ovarian,> 100 µM
same,TGI,RXF 393 renal,> 100 µM
same,TGI,EKVX NSCLC,> 100 µM
same,TGI,SN12C renal,> 100 µM
C[C@H]1CN[C@@H]2[C@@H](C)[C@H]3[C@@H](C[C@H]4[C@@H]5CC[C@H]6C[C@@H](N)CC[C@]6(C)[C@H]5CC[C@]34C)O[C@@]2(O)C1,TGI,U251 CNS,4.9 µM
same,TGI,UACC-62 melanoma,4.6 µM
same,TGI,T-47D breast,4.51 µM
same,TGI,CAKI-1 renal,6.43 µM
same,TGI,HCT-15 colon,4.5 µM
same,TGI,OVCAR-4 ovarian,17.5 µM
same,TGI,HS 578T breast,6.55 µM
same,TGI,EKVX NSCLC,14.9 µM
same,TGI,SN12C renal,4.25 µM
Cc1nc2cc(Nc3nc(Nc4ccc(F)cc4)nc(-c4cccs4)n3)ccc2n1Cc1ccccc1,GI50,U251 CNS,3.13 µM
same,TGI,U251 CNS,13.7 µM
same,GI50,T-47D breast,2600 nM
same,TGI,T-47D breast,9.33 µM
same,GI50,CAKI-1 renal,5.45 µM
same,TGI,CAKI-1 renal,> 100 µM
same,GI50,HCT-15 colon,3.11 µM
same,TGI,HCT-15 colon,16.3 µM
same,GI50,OVCAR-4 ovarian,3.24 µM
same,TGI,OVCAR-4 ovarian,34.8 µM
same,GI50,HS 578T breast,3.81 µM
same,TGI,HS 578T breast,> 100 µM
same,GI50,SN12C renal,5.73 µM
same,TGI,SN12C renal,58.1 µM
COc1cc(/C=C\c2cc(OC)c(OC)c(OC)c2)cc(N/C=C\C(=O)c2cc(OC)c(OC)c(OC)c2)c1OC,GI50,U251 CNS,3.84 µM
same,TGI,U251 CNS,> 100 µM
same,GI50,UACC-62 melanoma,3.11 µM
same,TGI,UACC-62 melanoma,> 100 µM
same,GI50,T-47D breast,1680 nM
same,TGI,T-47D breast,6.83 µM
same,GI50,CAKI-1 renal,3.37 µM
same,TGI,CAKI-1 renal,> 100 µM
same,GI50,HCT-15 colon,3.08 µM
same,TGI,HCT-15 colon,> 100 µM
same,GI50,OVCAR-4 ovarian,2.91 µM
same,TGI,OVCAR-4 ovarian,> 100 µM
same,GI50,HS 578T breast,2.76 µM
same,TGI,HS 578T breast,> 100 µM
same,GI50,SN12C renal,4.03 µM
same,TGI,SN12C renal,> 100 µM
COc1ccc(C(O)(CCC(C)C)C(CN2CCOCC2)c2ccc(Cl)cc2)cc1 (stereo not drawn),GI50,U251 CNS,12.3 µM
same,TGI,U251 CNS,26.3 µM
same,GI50,UACC-62 melanoma,13.4 µM
same,TGI,UACC-62 melanoma,29.1 µM
same,GI50,T-47D breast,11400 nM
same,TGI,T-47D breast,26.9 µM
same,GI50,CAKI-1 renal,14 µM
same,TGI,CAKI-1 renal,31.7 µM
same,GI50,HCT-15 colon,10.3 µM
same,TGI,HCT-15 colon,24.1 µM
same,GI50,OVCAR-4 ovarian,12.1 µM
same,TGI,OVCAR-4 ovarian,27.4 µM
same,GI50,RXF 393 renal,6490 nM
same,TGI,RXF 393 renal,21.7 µM
same,GI50,HS 578T breast,15.2 µM
same,TGI,HS 578T breast,40.4 µM
same,GI50,SN12C renal,13.4 µM
same,TGI,SN12C renal,31.2 µM
CS/C(=C(\S)c1ccccc1)c1ccccc1,TGI,U251 CNS,> 100 µM
same,TGI,UACC-62 melanoma,> 100 µM
same,TGI,CAKI-1 renal,> 100 µM
same,TGI,HCT-15 colon,> 100 µM
same,TGI,OVCAR-4 ovarian,> 100 µM
same,TGI,RXF 393 renal,> 100 µM
same,TGI,EKVX NSCLC,> 100 µM
same,TGI,SN12C renal,> 100 µM
CC(=O)N1CCC(=O)/C(=C/c2ccccc2)C1,TGI,U251 CNS,34.3 µM
same,TGI,UACC-62 melanoma,82.7 µM
same,TGI,CAKI-1 renal,30 µM
same,TGI,HCT-15 colon,48.2 µM
same,TGI,OVCAR-4 ovarian,37.8 µM
same,TGI,RXF 393 renal,67.6 µM
same,TGI,SN12C renal,37.6 µM
CC1(C)CC(=O)CC(=Nc2ccc([N+](=O)[O-])cc2)C1,TGI,U251 CNS,31.7 µM
same,TGI,UACC-62 melanoma,> 100 µM
same,TGI,HCT-15 colon,> 100 µM
same,TGI,RXF 393 renal,> 100 µM
same,TGI,EKVX NSCLC,> 100 µM
same,TGI,SN12C renal,> 100 µM
C[C@]12CCC(=O)C=C1CC[C@@H]1C2CC[C@]2(C)Nc3[nH]ncc3CC12 (stereo partly drawn),TGI,U251 CNS,> 100 µM
same,TGI,UACC-62 melanoma,> 100 µM
same,TGI,CAKI-1 renal,> 100 µM
same,TGI,HCT-15 colon,> 100 µM
same,TGI,OVCAR-4 ovarian,> 100 µM
same,TGI,RXF 393 renal,> 100 µM
same,TGI,EKVX NSCLC,> 100 µM
COC(=O)C1=C(C(=O)OC)C2=S(SC3=C2CCCC3)S1 (stereo not drawn),TGI,U251 CNS,70.1 µM
same,TGI,UACC-62 melanoma,> 100 µM
same,TGI,CAKI-1 renal,> 100 µM
same,TGI,HCT-15 colon,46.6 µM
same,TGI,OVCAR-4 ovarian,> 100 µM
same,TGI,RXF 393 renal,32.3 µM
same,TGI,EKVX NSCLC,> 100 µM
same,TGI,SN12C renal,> 100 µM
Nc1c(C(=O)c2ccccc2)cnn1-c1ccc(F)cc1,GI50,U251 CNS,> 25 µM
same,TGI,U251 CNS,> 25 µM
same,GI50,UACC-62 melanoma,> 25 µM
same,TGI,UACC-62 melanoma,> 25 µM
same,GI50,T-47D breast,> 25000 nM
same,TGI,T-47D breast,> 25 µM
same,GI50,CAKI-1 renal,> 25 µM
same,TGI,CAKI-1 renal,> 25 µM
same,GI50,HCT-15 colon,> 25 µM
same,TGI,HCT-15 colon,> 25 µM
same,GI50,OVCAR-4 ovarian,> 25 µM
same,TGI,OVCAR-4 ovarian,> 25 µM
same,GI50,RXF 393 renal,> 25000 nM
same,TGI,RXF 393 renal,> 25 µM
same,GI50,HS 578T breast,> 25 µM
same,TGI,HS 578T breast,> 25 µM
same,GI50,SN12C renal,> 25 µM
same,TGI,SN12C renal,> 25 µM
Clc1nc(Cl)nc(Nc2cccc3ccccc23)n1,GI50,U251 CNS,> 100 µM
same,TGI,U251 CNS,> 100 µM
same,GI50,UACC-62 melanoma,82.5 µM
same,TGI,UACC-62 melanoma,> 100 µM
same,GI50,T-47D breast,98500 nM
same,TGI,T-47D breast,> 100 µM
same,GI50,CAKI-1 renal,> 100 µM
same,TGI,CAKI-1 renal,> 100 µM
same,GI50,HCT-15 colon,96.5 µM
same,TGI,HCT-15 colon,> 100 µM
same,GI50,OVCAR-4 ovarian,> 100 µM
same,TGI,OVCAR-4 ovarian,> 100 µM
same,GI50,HS 578T breast,> 100 µM
same,TGI,HS 578T breast,> 100 µM
same,GI50,SN12C renal,> 100 µM
same,TGI,SN12C renal,> 100 µM
CCCCCCCN=C(N)c1ccc(N2CCN(c3ccc(C(N)=NCCCCCCC)cc3)CC2)cc1,GI50,U251 CNS,1.45 µM
same,TGI,U251 CNS,9.34 µM
same,GI50,UACC-62 melanoma,0.346 µM
same,TGI,T-47D breast,> 93.4 µM
same,GI50,CAKI-1 renal,0.474 µM
same,TGI,CAKI-1 renal,21.4 µM
same,GI50,HCT-15 colon,0.45 µM
same,TGI,HCT-15 colon,> 61.9 µM
same,GI50,OVCAR-4 ovarian,1.05 µM
same,TGI,OVCAR-4 ovarian,> 13.2 µM
same,GI50,RXF 393 renal,2460 nM
same,TGI,RXF 393 renal,6.69 µM
same,GI50,EKVX NSCLC,175 nM
same,TGI,EKVX NSCLC,2.94 µM
same,GI50,SN12C renal,1.08 µM
same,TGI,SN12C renal,14.7 µM
CCN(CC)CCSc1c2ccccc2nc2c(OC)ccc(OC)c12,TGI,U251 CNS,49.4 µM
same,TGI,UACC-62 melanoma,> 22.2 µM
same,TGI,CAKI-1 renal,> 22.2 µM
same,TGI,OVCAR-4 ovarian,> 20 µM
same,TGI,RXF 393 renal,3.94 µM
same,TGI,EKVX NSCLC,> 100 µM
same,TGI,SN12C renal,> 39.3 µM
COC(=O)C(C)NC(=O)C(CCSC)NC(=O)C(Cc1ccccc1)NC(=O)OC(C)(C)C (stereo not drawn) (Boc-Phe-Met-Ala-OMe; configuration not given here),GI50,U251 CNS,22.6 µg/mL
same,TGI,U251 CNS,67 µg/mL and > 100 µM
same,GI50,UACC-62 melanoma,28.2 µg/mL
same,TGI,UACC-62 melanoma,> 100 µM
same,TGI,T-47D breast,> 100 µM
same,TGI,CAKI-1 renal,> 100 µM
same,TGI,HCT-15 colon,> 100 µM
same,TGI,OVCAR-4 ovarian,> 100 µM
same,TGI,HS 578T breast,> 100 µM
same,GI50,SN12C renal,25.4 µg/mL
same,TGI,SN12C renal,71.8 µg/mL and > 100 µM
Cn1cc(-c2csc(-c3c[nH]c4ccc(Br)cc34)n2)c2cnccc21,GI50,HCT-15 colon,1.38 µM
same,TGI,HCT-15 colon,2.85 µM
same,GI50,OVCAR-4 ovarian,2.35 µM
same,TGI,OVCAR-4 ovarian,5.71 µM
same,GI50,RXF 393 renal,1470 nM
same,TGI,RXF 393 renal,2.96 µM
same,GI50,HS 578T breast,2.47 µM
same,TGI,HS 578T breast,5 µM
same,GI50,EKVX NSCLC,2500 nM
same,TGI,EKVX NSCLC,6.37 µM
same,GI50,SN12C renal,1.75 µM
same,TGI,SN12C renal,3.35 µM
O=C1c2cccc3cccc(c23)C(=O)N1CCCCCN1CCN(CCCCCOc2ccc(-c3nc4ccc(N5CCOCC5)cc4[nH]3)cc2)CC1,GI50,U251 CNS,5.47 µM
same,TGI,U251 CNS,10.2 µM
same,GI50,UACC-62 melanoma,16.1 µM
same,TGI,UACC-62 melanoma,> 57.1 µM
same,GI50,T-47D breast,2010 nM
same,TGI,T-47D breast,7.71 µM
same,GI50,CAKI-1 renal,> 45.6 µM
same,TGI,CAKI-1 renal,> 70.6 µM
same,GI50,HCT-15 colon,2.62 µM
same,TGI,HCT-15 colon,8.63 µM
same,GI50,OVCAR-4 ovarian,7.04 µM
same,TGI,OVCAR-4 ovarian,28.3 µM
same,GI50,HS 578T breast,21.8 µM
same,TGI,HS 578T breast,45.4 µM
same,GI50,EKVX NSCLC,> 47100 nM
same,TGI,EKVX NSCLC,> 74.6 µM
same,GI50,SN12C renal,> 100 µM
same,TGI,SN12C renal,> 100 µM
CN(C)CCNC(=O)c1cccc2c(Nc3ccc(S(=O)(=O)N=C(N)N)cc3)c3ccccc3nc12,TGI,U251 CNS,67 µM
same,TGI,UACC-62 melanoma,22.8 µM
same,TGI,HCT-15 colon,> 100 µM
same,TGI,OVCAR-4 ovarian,30 µM
same,TGI,RXF 393 renal,> 100 µM
same,TGI,EKVX NSCLC,55.3 µM
same,TGI,SN12C renal,59.5 µM
Cn1c2ccccc2c2ncc3[nH]c4ccccc4c3c21,TGI,U251 CNS,39.9 µM
same,TGI,UACC-62 melanoma,41.7 µM
same,TGI,CAKI-1 renal,68.8 µM
same,TGI,HCT-15 colon,63.7 µM
same,TGI,OVCAR-4 ovarian,32.1 µM
same,TGI,RXF 393 renal,30.6 µM
same,TGI,EKVX NSCLC,65.6 µM
same,TGI,SN12C renal,73.2 µM
